Data published in patent US10758534B2 (Vertex Pharmaceuticals Incorporated, priority 2014, dated 2020).

Molecular target: T1, F508del (Homo sapiens, UniProt P13569, DEL508-508)
T1 construct: expressed in transfected cells
Assay: Protocol 1: membrane potential optical assay (FLIPR III, voltage sensing dye), identification of potentiator compounds
Assay type: cell-based
Conditions: Table 3, compounds of Table 1
Summary of the method: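 NIH 3T3 fibroblasts stably expressing F508del were cultured at 27° C for 24 hrs for temperature correction, then treated with compounds or DMSO and loaded with a voltage-sensing redistribution dye. Forskolin added with a Cl⁻ gradient activated the channel; membrane-potential fluorescence on FLIPR III reported increased gating.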

T1 sequence (P13569 with tags, fused parts or gaps DEL508-508): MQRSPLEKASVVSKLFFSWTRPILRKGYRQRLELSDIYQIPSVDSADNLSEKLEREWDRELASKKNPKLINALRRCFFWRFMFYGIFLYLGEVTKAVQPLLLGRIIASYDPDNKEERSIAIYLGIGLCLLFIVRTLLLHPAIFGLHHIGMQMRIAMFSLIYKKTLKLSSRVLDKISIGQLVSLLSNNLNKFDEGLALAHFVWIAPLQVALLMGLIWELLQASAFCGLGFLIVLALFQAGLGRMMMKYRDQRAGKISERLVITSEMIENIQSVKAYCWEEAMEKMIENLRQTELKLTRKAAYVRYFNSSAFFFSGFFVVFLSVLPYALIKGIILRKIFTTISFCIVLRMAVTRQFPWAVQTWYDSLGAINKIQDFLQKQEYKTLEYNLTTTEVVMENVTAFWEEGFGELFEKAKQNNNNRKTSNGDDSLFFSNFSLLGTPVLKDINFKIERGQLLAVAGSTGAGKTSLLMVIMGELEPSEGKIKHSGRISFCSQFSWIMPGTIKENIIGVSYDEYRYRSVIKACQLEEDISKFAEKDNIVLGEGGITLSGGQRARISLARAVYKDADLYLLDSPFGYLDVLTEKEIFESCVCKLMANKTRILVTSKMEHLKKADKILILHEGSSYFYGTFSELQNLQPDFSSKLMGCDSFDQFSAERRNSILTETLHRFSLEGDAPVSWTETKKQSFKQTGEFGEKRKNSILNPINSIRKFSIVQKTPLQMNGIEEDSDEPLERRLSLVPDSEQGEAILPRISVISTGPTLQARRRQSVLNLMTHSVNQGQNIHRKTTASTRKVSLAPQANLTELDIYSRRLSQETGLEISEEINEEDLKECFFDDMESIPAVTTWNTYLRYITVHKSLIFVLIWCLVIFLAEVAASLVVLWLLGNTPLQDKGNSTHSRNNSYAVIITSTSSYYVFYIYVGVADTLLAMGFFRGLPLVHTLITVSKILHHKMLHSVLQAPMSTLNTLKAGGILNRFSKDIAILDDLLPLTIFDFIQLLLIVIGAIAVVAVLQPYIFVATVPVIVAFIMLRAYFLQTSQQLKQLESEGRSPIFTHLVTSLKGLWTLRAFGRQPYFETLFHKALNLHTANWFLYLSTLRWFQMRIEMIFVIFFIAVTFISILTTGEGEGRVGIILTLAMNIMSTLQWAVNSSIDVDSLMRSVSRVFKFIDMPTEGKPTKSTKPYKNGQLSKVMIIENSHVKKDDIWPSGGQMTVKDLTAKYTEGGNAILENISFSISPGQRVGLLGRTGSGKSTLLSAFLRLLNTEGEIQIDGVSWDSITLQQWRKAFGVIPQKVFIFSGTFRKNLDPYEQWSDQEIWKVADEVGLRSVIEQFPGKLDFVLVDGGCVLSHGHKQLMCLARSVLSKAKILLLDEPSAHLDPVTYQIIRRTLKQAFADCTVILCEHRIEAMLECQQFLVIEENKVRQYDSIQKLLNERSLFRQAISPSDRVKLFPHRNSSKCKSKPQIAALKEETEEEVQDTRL

CCCCOc1cccc(-c2ccc(C(=O)NS(=O)(=O)c3ccc[nH]c3=O)c(Oc3c(C)cc(C)cc3C)n2)c1Cl [Compound 964, 6-(3-butoxy-2-chloro-phenyl)-N-[(2-oxo-1H-pyridin-3-yl)sulfonyl]-2-(2,4,6-trimethylphenoxy)pyridine-3-carboxamide] was tested. Which EC30 did it give?
The EC30 was “+++ (“+++” means <3 uM)”.

With CC1CN(c2nc(-c3cnc(OC(C)C)cn3)ccc2C(=O)NS(=O)(=O)c2cccc(N)n2)C(C)(C)C1 (centres unmarked) [Compound 965, N-[(6-amino-2-pyridyl)sulfonyl]-6-(5-isopropoxypyrazin-2-yl)-2-(2,2,4-trimethylpyrrolidin-1-yl)pyridine-3-carboxamide] as the compound, how does the EC30 read?
The EC30 was “+++ (“+++” means <3 uM)”.

Which EC30 does the source give for Cc1cc(C)c(Oc2nc(N3CCOCC3)ccc2C(=O)NS(=O)(=O)c2cccc(N)n2)c(C)c1 [Compound 966, N-[(6-amino-2-pyridyl)sulfonyl]-6-morpholino-2-(2,4,6-trimethylphenoxy)pyridine-3-carboxamide] here?
Its EC30 is “+ (“+” means greater than 10 uM)”.

With CC(C)COc1cc(F)cc(-c2ccc(C(=O)NS(=O)(=O)c3cccc(N)n3)c(OC(C)Cc3ccccc3)n2)c1 (centres unmarked) [Compound 967, N-[(6-amino-2-pyridyl)sulfonyl]-6-(3-fluoro-5-isobutoxy-phenyl)-2-(1-methyl-2-phenyl-ethoxy)pyridine-3-carboxamide] as the compound, how does the EC30 read?
The EC30 was “+++ (“+++” means <3 uM)”.

For Cc1cc(C)c(Oc2nc(OC(C)C)ccc2C(=O)NS(=O)(=O)c2cccc(N)n2)c(C)c1 [Compound 968, N-[(6-amino-2-pyridyl)sulfonyl]-6-isopropoxy-2-(2,4,6-trimethylphenoxy)pyridine-3-carboxamide], which EC30 is on record?
The EC30 was “+++ (“+++” means <3 uM)”.

Which EC30 does the source give for CC(C)COc1cc(F)cc(-c2ccc(C(=O)NS(=O)(=O)c3cccc(N)n3)c(N3CCC(Cc4ccccc4)C3C)n2)c1 (centres unmarked) [Compound 969, N-[(6-amino-2-pyridyl)sulfonyl]-2-(3-benzyl-2-methyl-pyrrolidin-1-yl)-6-(3-fluoro-5-isobutoxy-phenyl)pyridine-3-carboxamide] here?
The EC30 was “+++ (“+++” means <3 uM)”.

CCC1(CC)CCCN(c2nc(-c3ccc(OC(C)C)nc3)ccc2C(=O)NS(=O)(=O)c2cccc(N)n2)C1 [Compound 971, N-[(6-amino-2-pyridyl)sulfonyl]-2-(3,3-diethyl-1-piperidyl)-6-(6-isopropoxy-3-pyridyl)pyridine-3-carboxamide] was tested. Which EC30 did it give?
The EC30 was “+++ (“+++” means <3 uM)”.

For CC1CN(c2nc(-c3cc(F)cc(OC(C)C)c3)ccc2C(=O)NS(=O)(=O)c2cccc(N)n2)C(C)(C)C1 (centres unmarked) [Compound 972, N-[(6-amino-2-pyridyl)sulfonyl]-6-(3-fluoro-5-isopropoxy-phenyl)-2-(2,2,4-trimethylpyrrolidin-1-yl)pyridine-3-carboxamide], which EC30 is on record?
The EC30 was “+++ (“+++” means <3 uM)”.

With CC(C)COc1cc(F)cc(-c2ccc(C(=O)NS(=O)(=O)c3cccc(N)n3)c(N3CCC4(CC3)CC4)n2)c1 [Compound 973, N-[(6-amino-2-pyridyl)sulfonyl]-2-(6-azaspiro[2.5]octan-6-yl)-6-(3-fluoro-5-isobutoxy-phenyl)pyridine-3-carboxamide] as the compound, how does the EC30 read?
Its EC30 is “+++ (“+++” means <3 uM)”.

How did the EC30 turn out when Cc1cc(C)c(Oc2nc(-c3cccc4c3OCO4)ccc2C(=O)NS(=O)(=O)c2cccc(N)n2)c(C)c1 [Compound 974, N-[(6-amino-2-pyridyl)sulfonyl]-6-(1,3-benzodioxol-4-yl)-2-(2,4,6-trimethylphenoxy)pyridine-3-carboxamide] was run?
Its EC30 is “+++ (“+++” means <3 uM)”.

Which EC30 does the source give for COCC1CCN(c2nc(-c3cc(F)cc(OCC(C)C)c3)ccc2C(=O)NS(=O)(=O)c2ccn[nH]2)CC1 [Compound 975, 6-(3-fluoro-5-isobutoxy-phenyl)-2-[4-(methoxymethyl)-1-piperidyl]-N-(1H-pyrazol-5-ylsulfony)pyridine-3-carboxamide] here?
The EC30 was “++ (“++” means between 3 uM and 10 uM)”.

For Cc1cc(C)c(Oc2nc(C3=CCOCC3)ccc2C(=O)NS(=O)(=O)c2cccc(N)n2)c(C)c1 [Compound 976, N-[(6-amino-2-pyridyl)sulfonyl]-6-(3,6-dihydro-2H-pyran-4-yl)-2-(2,4,6-trimethylphenoxy)pyridine-3-carboxamide], which EC30 is on record?
The EC30 was “++ (“++” means between 3 uM and 10 uM)”.

For Cc1cc(C)c(Oc2nc(-c3cccc4[nH]ccc34)ccc2C(=O)NS(=O)(=O)c2cccc(N)n2)c(C)c1 [Compound 977, N-[(6-amino-2-pyridyl)sulfonyl]-6-(1H-indol-4-yl)-2-(2,4,6-trimethylphenoxy)pyridine-3-carboxamide], which EC30 is on record?
The EC30 was “++ (“++” means between 3 uM and 10 uM)”.

CC(C)COc1cc(F)cc(-c2ccc(C(=O)NS(=O)(=O)c3cccc(N)n3)c(OC3C(C)CCCC3C)n2)c1 (centres unmarked) [Compound 978, N-[(6-amino-2-pyridyl)sulfonyl]-2-(2,6-dimethylcyclohexoxy)-6-(3-fluoro-5-isobutoxy-phenyl)pyridine-3-carboxamide] was tested. Which EC30 did it give?
Its EC30 is “+++ (“+++” means <3 uM)”.

For CC(C)Oc1ccc(-c2ccc(C(=O)NS(=O)(=O)c3cccc(N)n3)c(N3CCC(C)C(C)C3)n2)cn1 (centres unmarked) [Compound 979, N-[(6-amino-2-pyridyl)sulfonyl]-2-(3,4-dimethyl-1-piperidyl)-6-(6-isopropoxy-3-pyridyl)pyridine-3-carboxamide], which EC30 is on record?
The EC30 was “+++ (“+++” means <3 uM)”.

COc1ccc(-c2ccc(C(=O)NS(=O)(=O)c3ccc[nH]c3=O)c(Oc3c(C)cc(C)cc3C)n2)cc1 [Compound 980, 6-(4-methoxyphenyl)-N-[(2-oxo-1H-pyridin-3-yl)sulfonyl]-2-(2,4,6-trimethylphenoxy)pyridine-3-carboxamide] was tested. Which EC30 did it give?
The EC30 was “++ (“++” means between 3 uM and 10 uM)”.

How did the EC30 turn out when CC(C)COc1cc(F)cc(-c2ccc(C(=O)NS(=O)(=O)c3ccn[nH]3)c(N3Cc4ccccc4C3)n2)c1 [Compound 981, 6-(3-fluoro-5-isobutoxy-phenyl)-2-isoindolin-2-yl-N-(1H-pyrazol-5-ylsulfonyl)pyridine-3-carboxamide] was run?
The EC30 was “++ (“++” means between 3 uM and 10 uM)”.

Cc1cc(C)c(Oc2nc(C)ccc2C(=O)NS(=O)(=O)c2cccc(NCCCN)n2)c(C)c1 [Compound 982, N-[[6-(3-aminopropylamino)-2-pyridyl]sulfonyl]-6-methyl-2-(2,4,6-trimethylphenoxy)pyridine-3-carboxamide] was tested. Which EC30 did it give?
The EC30 was “++ (“++” means between 3 uM and 10 uM)”.

Which EC30 does the source give for CNc1ccc(C(=O)NS(=O)(=O)c2cccc(N)n2)c(Oc2c(C)cc(C)cc2C)n1 [Compound 983, N-[(6-amino-2-pyridyl)sulfonyl]-6-(methylamino)-2-(2,4,6-trimethylphenoxy)pyridine-3-carboxamide] here?
The EC30 was “++ (“++” means between 3 uM and 10 uM)”.

How did the EC30 turn out when COc1cc(F)c(-c2ccc(C(=O)NS(=O)(=O)c3cccc(N)n3)c(Oc3c(C)cc(C)cc3C)n2)cc1F [Compound 984, N-[(6-amino-2-pyridyl)sulfonyl]-6-(2,5-difluoro-4-methoxy-phenyl)-2-(2,4,6-trimethylphenoxy)pyridine-3-carboxamide] was run?
Its EC30 is “+++ (“+++” means <3 uM)”.

C[C@@H]1CN(c2nc(C(C)(C)C)ccc2C(=O)NS(=O)(=O)c2cccc(N)n2)C(C)(C)C1 [Compound 985, N-[(6-amino-2-pyridyl)sulfonyl]-6-tert-butyl-2-[(4S)-2,2,4-trimethylpyrrolidin-1-yl]pyridine-3-carboxamide] was tested. Which EC30 did it give?
Its EC30 is “+++ (“+++” means <3 uM)”.

How did the EC30 turn out when COCC1CCN(c2nc(C(C)(C)C)ccc2C(=O)NS(=O)(=O)c2cccc(N)n2)CC1 [Compound 986, N-[(6-amino-2-pyridyl)sulfonyl]-6-tert-butyl-2-[4-(methoxymethyl)-1-piperidyl]pyridine-3-carboxamide] was run?
The EC30 was “++ (“++” means between 3 uM and 10 uM)”.

Which EC30 does the source give for CC(C)Oc1ccc(-c2ccc(C(=O)NS(=O)(=O)c3cccc(N)n3)c(N3CCCC34CCC4)n2)cn1 [Compound 987, N-[(6-amino-2-pyridyl)sulfonyl]-2-(8-azaspiro[3.4]octan-8-yl)-6-(6-isopropoxy-3-pyridyl)pyridine-3-carboxamide] here?
Its EC30 is “+++ (“+++” means <3 uM)”.

For CC(C)COc1cncc(-c2ccc(C(=O)NS(=O)(=O)c3cccc(N)n3)c(N3CC(C)CC3(C)C)n2)n1 (centres unmarked) [Compound 988, N-[(6-amino-2-pyridyl)sulfonyl]-6-(6-isobutoxypyrazin-2-yl)-2-(2,2,4-trimethylpyrrolidin-1-yl)pyridine-3-carboxamide], which EC30 is on record?
Its EC30 is “+++ (“+++” means <3 uM)”.

Which EC30 does the source give for Cc1cc(C)c(Oc2nc(-c3cc(F)cc(OC(C)C)c3)ccc2C(=O)NS(=O)(=O)c2nccnc2N)c(C)c1 [Compound 989, N-(3-aminopyrazin-2-yl)sulfonyl-6-(3-fluoro-5-isopropoxy-phenyl)-2-(2,4,6-trimethylphenoxy)pyridine-3-carboxamide] here?
The EC30 was “+++ (“+++” means <3 uM)”.

For CC(C)Oc1ccc(-c2ccc(C(=O)NS(=O)(=O)c3ccn[nH]3)c(N3C[C@H](C)C[C@@H](C)C3)n2)cn1 [Compound 990, 2-[(3R,5R)-3,5-dimethyl-1-piperidyl]-6-(6-isopropoxy-3-pyridyl)-N-(1H-pyrazol-5-ylsulfonyl)pyridine-3-carboxamide], which EC30 is on record?
The EC30 was “+++ (“+++” means <3 uM)”.

Which EC30 does the source give for CC(C)COc1cc(F)cc(-c2ccc(C(=O)NS(=O)(=O)c3cccc(N)n3)c(N3CCC(C)CC3)n2)c1 [Compound 991, N-[(6-amino-2-pyridyl)sulfonyl]-6-(3-fluoro-5-isobutoxy-phenyl)-2-(4-methyl-1-piperidyl)pyridine-3-carboxamide] here?
The EC30 was “+++ (“+++” means <3 uM)”.

How did the EC30 turn out when CC(C)Oc1ccc(-c2ccc(C(=O)NS(=O)(=O)c3cccc(N)n3)c(N3CC[C@@H](C)C3(C)C)n2)cn1 [Compound 992, N-[(6-amino-2-pyridyl)sulfonyl]-6-(6-isopropoxy-3-pyridyl)-2-[(3R)-2,2,3-trimethylpyrrolidin-1-yl]pyridine-3-carboxamide] was run?
The EC30 was “+++ (“+++” means <3 uM)”.

For COc1ncc(Cl)cc1-c1ccc(C(=O)NS(=O)(=O)c2cccc(N)n2)c(Oc2c(C)cc(C)cc2C)n1 [Compound 993, N-[(6-amino-2-pyridyl)sulfonyl]-6-(5-chloro-2-methoxy-3-pyridyl)-2-(2,4,6-trimethylphenoxy)pyridine-3-carboxamide], which EC30 is on record?
The EC30 was “+++ (“+++” means <3 uM)”.
